Data set [1] addresses T1, UBA1 (Homo sapiens, UniProt P22314).
T1 sequence (P22314 1-1058): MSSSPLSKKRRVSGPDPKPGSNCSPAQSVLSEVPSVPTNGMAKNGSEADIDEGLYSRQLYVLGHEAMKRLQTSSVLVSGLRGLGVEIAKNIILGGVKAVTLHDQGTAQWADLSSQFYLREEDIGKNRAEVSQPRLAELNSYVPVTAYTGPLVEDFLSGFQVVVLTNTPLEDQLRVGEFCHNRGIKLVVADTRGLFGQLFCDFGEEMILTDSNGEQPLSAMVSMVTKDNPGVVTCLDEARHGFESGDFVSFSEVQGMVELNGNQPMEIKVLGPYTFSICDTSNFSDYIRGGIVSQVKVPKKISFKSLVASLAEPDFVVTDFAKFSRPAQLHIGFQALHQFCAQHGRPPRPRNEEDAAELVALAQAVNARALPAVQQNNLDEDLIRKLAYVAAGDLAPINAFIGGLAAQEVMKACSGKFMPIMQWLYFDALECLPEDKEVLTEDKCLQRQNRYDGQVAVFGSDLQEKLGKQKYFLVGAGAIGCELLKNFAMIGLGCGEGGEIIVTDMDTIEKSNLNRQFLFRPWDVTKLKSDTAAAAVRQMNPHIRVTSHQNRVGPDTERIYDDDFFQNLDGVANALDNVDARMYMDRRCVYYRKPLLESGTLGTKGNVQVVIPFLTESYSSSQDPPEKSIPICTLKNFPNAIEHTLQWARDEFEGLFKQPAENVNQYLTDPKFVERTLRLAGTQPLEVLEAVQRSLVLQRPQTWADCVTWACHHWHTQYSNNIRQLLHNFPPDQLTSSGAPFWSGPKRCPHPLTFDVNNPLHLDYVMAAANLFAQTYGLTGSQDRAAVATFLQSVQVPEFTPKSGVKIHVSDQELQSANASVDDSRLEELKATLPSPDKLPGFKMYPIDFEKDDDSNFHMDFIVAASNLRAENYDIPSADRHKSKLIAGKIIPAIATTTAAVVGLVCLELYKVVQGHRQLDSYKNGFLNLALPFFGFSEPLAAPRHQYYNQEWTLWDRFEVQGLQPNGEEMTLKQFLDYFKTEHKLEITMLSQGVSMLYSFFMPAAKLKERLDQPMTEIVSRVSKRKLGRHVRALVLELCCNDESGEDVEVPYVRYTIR
Nature of the data set: Hydrogen-deuterium exchange mass spectrometry with E1. The format is binding. Conditions: 10 s labeling. Here is the method:
HXMS analysis: Hydrogen-deuterium exchange mass spectrometry (HXMS) experiments were performed as described (Barclay, L. A. et al. Inhibition of Pro-apoptotic BAX by a noncanonical interaction mechanism. Molecular Cell 57, 873-886, doi: 10.1016/j.molcel.2015.01.014 (2015)). SAH-UBE2A was incubated alone or with the indicated molar ratio of recombinant human UBA1, UBE2D2, or vehicle control for ten minutes on ice, in buffer containing 50 mM NaCl, 5 mM MgCl2, 500 nM ubiquitin, 20 mM ATP, 5 mM DTT, 20 mM HEPES, pH 7.4. Deuterium labeling was initiated with an 18-fold dilution into D20 buffer (20 mM HEPES, 50 mM NaCl, pD 8). After 10 s of labeling, the labeling reaction was quenched with the addition of an equal volume of quenching buffer (0.8 M guanidinium chloride, 0.8% [v/v] formic acid). Samples were then injected and peptides were trapped intact and desalted on a VanGuard Pre-Column trap (2.1 mm×5 mm, ACQUITY UPLC BEH C18, 1.7 μm) for 3 min, eluted from the trap using a 5%-35% gradient of acetonitrile over 6 minutes at a flow rate of 65 μL/min, and then separated using an ACQUITY UPLC HSS T3, 1.8 μm, 1.0 mm×50 mm column on a Waters nanoACQUITY LC. The Waters Synapt G2Si mass spectrometer was operated in ion mobility mode and data analyzed. All mass spectra were processed using DynamX 3.0 (Waters Corporation). […]

Data set [2] deals with T2, native UBA1 (Homo sapiens, UniProt P22314).
T2 construct: endogenous in cells; host or cells: HeLa cell lysate
T2 sequence (P22314 1-1058): T1 sequence (P22314 1-1058)
Put plainly: Streptavidin-biotin pull-down from HeLa cell lysate, western blot for UBA1. The class given is binding. Conditions: biotinylated peptide. The procedure:
Streptavidin-biotin pull-down assays: For recombinant protein pull-downs, 10 pmol recombinant human UBA1 was incubated with 5 nmol C-terminally biotinylated SAH-UBE2A or DMSO vehicle control in a total volume of 1 mL binding buffer (50 mM NaCl, 20 mM HEPES, pH 7.4, 5 mM DTT) for 1.5 hours at 4° C. 30 μL of pre-equilibrated streptavidin agarose beads were then added and incubated for an additional 1.5 hours at 4° C. The beads were pelleted by centrifugation and washed three times with NP-40 buffer (20 mM HEPES, pH 7.4, 50 mM NaCl, 5 mM DTT, 0.5% [v/v] NP-40) before eluting the protein sample from the beads by heating at 70° C. for 10 min in 3×SDS loading buffer. Samples were subjected to electrophoresis and silver staining (Pierce 24612). […] Proteins were separated by SDS-PAGE gel electrophoresis and detected by western blot against UBE1 (Abcam ab34711). […] Conjugation of ubiquitin to E2 by E1 is monitored by conversion of free E2 (17 kDa) to E2˜ubiquitin conjugate (26 kDa). Quantitation of percent inhibition was calculated from densitometry of silver stain images. Error bars represent ±1 SEM calculated from three independent experiments.
(Immunoblotting shows a protein as a band on a membrane.)

The target in data set [3] is proteinase K (Parengyodontium album, UniProt P06873). Put plainly: in vitro. The conditions noted are these: proteinase K (isolated protease) in Tris HCl buffer, pH 7.4.
Procedure: Peptide Proteolysis Assay: In vitro proteolytic degradation was measured by LC/MS (Agilent 1200) using the following parameters: 20 μl injection, 0.6 mL flow rate, 20-min run time consisting of a gradient of water (0.1% formic acid) to 20%-80% acetonitrile (0.75% formic acid) over 15-min, 4-min wash to revert to starting gradient conditions, and 0.5-min post-time. The MSD set to scan mode with one channel at (M+2H)/2, ±1 mass units, one channel at (M+3H)/3, ±1 mass units, and the other at (M+4H)/4, ±1 mass units. Integration of each MSD signal yielded areas under the curve of >108 counts. Reaction samples were composed of 5 μl peptide in DMSO (1 mM stock) and 195 μl buffer consisting of 50 mM Tris HCl, pH 7.4. Upon injection of the zero time sample, 6 μl of 20 ng/μL proteinase K (New England Biolabs) was added, and the amount of intact peptide quantitated by serial injection over time. A plot of MSD area versus time yielded an exponential decay curve, and half-lives were determined by nonlinear regression analysis using Prism software (GraphPad).

Entries after “also recorded” stand apart in the source; their conditions may differ. Bridge positions count the residues as written; N and C are the ends. Square brackets hold non-standard residues; d marks the D form. Peptide text beside a SMILES is read from it. R8 = C=CCCCCCC[C@@](C)(N)C(=O)O; S5 = C=CCCC[C@](C)(N)C(=O)O; Nle = CCCC[C@H](N)C(=O)O Bounds are passed on as bounds.

proteinase K, sequence (P06873 106-384): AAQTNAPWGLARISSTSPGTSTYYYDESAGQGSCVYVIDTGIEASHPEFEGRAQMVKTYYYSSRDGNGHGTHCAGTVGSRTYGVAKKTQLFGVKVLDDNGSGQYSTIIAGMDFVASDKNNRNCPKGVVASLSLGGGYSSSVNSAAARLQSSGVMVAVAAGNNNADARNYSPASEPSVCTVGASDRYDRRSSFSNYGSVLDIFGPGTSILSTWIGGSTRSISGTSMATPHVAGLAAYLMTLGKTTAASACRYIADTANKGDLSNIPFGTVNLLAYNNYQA

In the case of `CCCC[C@H](NC(C)=O)C(=O)N[C@@H](CO)C(=O)N[C@H](C(=O)N1CCC[C@H]1C(=O)N[C@]1(C)CCCCCCC=CCCC[C@@](C)(C(=O)N[C@@H](Cc2ccccc2)C(=O)N[C@@H](CCCCN)C(=O)N[C@@H](CCCNC(=N)N)C(=O)N[C@@H](CC(C)C)C(=O)N[C@@H](CCC(N)=O)C(N)=O)NC(=O)[C@H](CCCNC(=N)N)NC(=O)[C@H](CCCC)NC(=O)[C@H](CC(C)C)NC(=O)[C@H](CCCNC(=N)N)NC(=O)[C@H](CCCNC(=N)N)NC(=O)[C@H](CCCNC(=N)N)NC1=O)[C@@H](C)O` [SAH-UBE2A-11, BSTPX1RRRLBRX2FKRLQ] (Ac-[Nle]STP[R8]RRRL[Nle]R[S5]FKRLQ-NH2; staple 5-12), the “protection of peptide from deuterium uptake by UBA1” value in data set [1] was “dose-dependently protected SAH-UBE2A from deuterium uptake; also recorded: dose-responsively binding to E1”. In addition, in data set [2], the “direct binding to native UBA1 in HeLa cell lysate” value is on record as “direct binding of SAH-UBE2A to native UBA1”. The half-life at 25 µM in data set [3] was more than 360 min.

What is called half-life is how long it takes for the measured level to halve. Higher therefore signals slow loss.

(Values after patent publication US12358960B2, “Selective targeting of ubiquitin- and ubiquitin-like E1-activating enzymes by structurally-stabilized peptides” (Dana-Farber Cancer Institute, Inc., priority 2019, dated 2025).)
